# Laboratory results as given in ChEMBL document CHEMBL5214990, “Novel Aryl Alkamidazole Derivatives as Multifunctional Antifungal Inhibitors: Design, Synthesis, and Biological Evaluation” (J Med Chem, 2022).
# Key:
# Type in all cases: functional
# Aspergillus fumigatus = experiment: Antifungal activity against Aspergillus fumigatus KM8001 assessed as inhibition of fungal growth measured after 72 hrs by CLSI based liquid medium dilution method
# Candida tropicalis = experiment: Antifungal activity against Candida tropicalis ATCC 1369 assessed as inhibition of fungal growth measured after 72 hrs by CLSI based liquid medium dilution method
# Pichia kudriavzevii = experiment: Antifungal activity against Candida krusei ATCC 6258 assessed as inhibition of fungal growth measured after 72 hrs by CLSI based liquid medium dilution method
# Candida albicans [1] = experiment: Antifungal activity against Candida albicans ATCC SC5314 assessed as inhibition of fungal growth measured after 72 hrs by CLSI based liquid medium dilution method
# Cryptococcus neoformans = experiment: Antifungal activity against Cryptococcus neoformans assessed as inhibition of fungal growth measured after 72 hrs by CLSI based liquid medium dilution method
# Candida albicans [2] = experiment: Antifungal activity against fluconazole-resistant Candida albicans 904 assessed as inhibition of fungal growth measured after 72 hrs by CLSI based liquid medium dilution method
# Candida albicans [3] = experiment: Antifungal activity against fluconazole-resistant Candida albicans 901 assessed as inhibition of fungal growth measured after 72 hrs by CLSI based liquid medium dilution method
# Candida albicans [4] = experiment: Antifungal activity against fluconazole-resistant Candida albicans CaR assessed as inhibition of fungal growth measured after 72 hrs by CLSI based liquid medium dilution method
# Candida albicans [5] = experiment: Antifungal activity against fluconazole-resistant Candida albicans 632 assessed as inhibition of fungal growth measured after 72 hrs by CLSI based liquid medium dilution method
# Candida albicans [6] = experiment: Antifungal activity against fluconazole-resistant Candida albicans 17# assessed as inhibition of fungal growth measured after 72 hrs by CLSI based liquid medium dilution method
smiles,measurement,setting,value
C[C@H](C(=O)OC(Cn1cnnn1)c1ccc(Cl)cc1)c1ccc(CC2CCCC2=O)cc1 (stereo not given in full),MIC50,Aspergillus fumigatus,> 8 µg/mL
same,MIC50,Candida tropicalis,1 µg/mL
same,MIC50,Pichia kudriavzevii,2 µg/mL
same,MIC50,Candida albicans [1],2 µg/mL
same,MIC50,Cryptococcus neoformans,4 µg/mL
COc1ccc2cc([C@H](C)C(=O)OC(Cn3ccnc3)c3ccc(F)cc3)ccc2c1 (stereo not given in full),MIC50,Aspergillus fumigatus,4 µg/mL
same,MIC50,Candida tropicalis,0.5 µg/mL
same,MIC50,Pichia kudriavzevii,2 µg/mL
same,MIC50,Candida albicans [1],0.5 µg/mL
same,MIC50,Cryptococcus neoformans,1 µg/mL
C[C@H](C(=O)N(C)CC(O)(Cn1ccnc1)c1ccc(Cl)cc1)c1cccc(C(=O)c2ccccc2)c1 (stereo not given in full),MIC50,Aspergillus fumigatus,4 µg/mL
same,MIC50,Candida tropicalis,1 µg/mL
same,MIC50,Pichia kudriavzevii,0.5 µg/mL
same,MIC50,Candida albicans [1],0.5 µg/mL
same,MIC50,Cryptococcus neoformans,0.5 µg/mL
C[C@H](C(=O)OC(Cn1cnnn1)c1ccc(F)cc1)c1ccc(-c2ccccc2)c(F)c1 (stereo not given in full),MIC50,Aspergillus fumigatus,4 µg/mL
same,MIC50,Candida tropicalis,0.25 µg/mL
same,MIC50,Pichia kudriavzevii,0.5 µg/mL
same,MIC50,Candida albicans [1],0.5 µg/mL
same,MIC50,Cryptococcus neoformans,1 µg/mL
C[C@H](C(=O)N[C@H](Cn1ccnc1)c1ccccc1)c1cccc(C(=O)c2ccccc2)c1,MIC50,Aspergillus fumigatus,> 8 µg/mL
same,MIC50,Candida tropicalis,2 µg/mL
same,MIC50,Pichia kudriavzevii,1 µg/mL
same,MIC50,Candida albicans [1],1 µg/mL
same,MIC50,Cryptococcus neoformans,0.5 µg/mL
COc1ccc2cc([C@H](C)C(=O)N(C)CC(O)(Cn3ccnc3)c3ccc(Cl)cc3Cl)ccc2c1 (stereo not given in full),MIC50,Aspergillus fumigatus,4 µg/mL
same,MIC50,Candida tropicalis,0.25 µg/mL
same,MIC50,Pichia kudriavzevii,2 µg/mL
same,MIC50,Candida albicans [1],0.5 µg/mL
same,MIC50,Cryptococcus neoformans,0.5 µg/mL
C[C@H](C(=O)N[C@H](Cn1cncn1)c1ccccc1)c1cccc(C(=O)c2ccccc2)c1,MIC50,Aspergillus fumigatus,2 µg/mL
same,MIC50,Candida tropicalis,1 µg/mL
same,MIC50,Pichia kudriavzevii,0.5 µg/mL
same,MIC50,Candida albicans [1],1 µg/mL
same,MIC50,Cryptococcus neoformans,2 µg/mL
C[C@H](C(=O)N[C@H](Cn1cncn1)c1ccccc1)c1ccc(-c2ccccc2)c(F)c1,MIC50,Aspergillus fumigatus,4 µg/mL
same,MIC50,Candida tropicalis,0.25 µg/mL
same,MIC50,Pichia kudriavzevii,0.5 µg/mL
same,MIC50,Candida albicans [1],0.5 µg/mL
same,MIC50,Cryptococcus neoformans,0.5 µg/mL
COc1ccc2cc([C@H](C)C(=O)OC(Cn3cnnn3)c3ccc(Cl)cc3)ccc2c1 (stereo not given in full),MIC50,Aspergillus fumigatus,4 µg/mL
same,MIC50,Candida tropicalis,0.5 µg/mL
same,MIC50,Pichia kudriavzevii,0.25 µg/mL
same,MIC50,Candida albicans [1],0.5 µg/mL
same,MIC50,Cryptococcus neoformans,0.5 µg/mL
C[C@H](C(=O)N[C@H](Cn1cncn1)c1ccccc1)c1ccc(CC2CCCC2=O)cc1 (stereo not given in full),MIC50,Aspergillus fumigatus,> 8 µg/mL
same,MIC50,Candida tropicalis,2 µg/mL
same,MIC50,Pichia kudriavzevii,0.5 µg/mL
same,MIC50,Candida albicans [1],1 µg/mL
same,MIC50,Cryptococcus neoformans,2 µg/mL
CC(=O)N1CCN(c2ccc(OCC3COC(Cn4ccnc4)(c4ccc(Cl)cc4Cl)O3)cc2)CC1 (stereo not given) [KETOCONAZOLE],MIC50,Aspergillus fumigatus,> 8 µg/mL
same,MIC50,Candida albicans [2],> 8 µg/mL
same,MIC50,Candida tropicalis,0.5 µg/mL
same,MIC50,Pichia kudriavzevii,0.5 µg/mL
same,MIC50,Candida albicans [3],4 µg/mL
same,MIC50,Candida albicans [1],1 µg/mL
same,MIC50,Candida albicans [4],4 µg/mL
same,MIC50,Candida albicans [5],> 8 µg/mL
same,MIC50,Cryptococcus neoformans,1 µg/mL
same,MIC50,Candida albicans [6],4 µg/mL
C[C@H](C(=O)OC(Cn1cnnn1)c1ccc(Cl)cc1)c1ccc(-c2ccccc2)c(F)c1 (stereo not given in full),MIC50,Aspergillus fumigatus,2 µg/mL
same,MIC50,Candida tropicalis,1 µg/mL
same,MIC50,Pichia kudriavzevii,0.25 µg/mL
same,MIC50,Candida albicans [1],1 µg/mL
same,MIC50,Cryptococcus neoformans,0.5 µg/mL
C[C@H](C(=O)N[C@H](Cn1ccnc1)c1ccccc1)c1ccc(-c2ccccc2)c(F)c1,MIC50,Aspergillus fumigatus,4 µg/mL
same,MIC50,Candida tropicalis,0.5 µg/mL
same,MIC50,Pichia kudriavzevii,0.25 µg/mL
same,MIC50,Candida albicans [1],0.5 µg/mL
same,MIC50,Cryptococcus neoformans,0.5 µg/mL
C[C@H](C(=O)N(C)CC(O)(Cn1ccnc1)c1ccc(F)cc1)c1cccc(C(=O)c2ccccc2)c1 (stereo not given in full),MIC50,Aspergillus fumigatus,> 8 µg/mL
same,MIC50,Candida tropicalis,0.5 µg/mL
same,MIC50,Pichia kudriavzevii,1 µg/mL
same,MIC50,Candida albicans [1],0.5 µg/mL
same,MIC50,Cryptococcus neoformans,0.5 µg/mL
COc1ccc2cc([C@H](C)C(=O)N(C)CC(O)(Cn3ccnc3)c3ccc(F)cc3)ccc2c1 (stereo not given in full),MIC50,Aspergillus fumigatus,> 8 µg/mL
same,MIC50,Candida tropicalis,0.25 µg/mL
same,MIC50,Pichia kudriavzevii,1 µg/mL
same,MIC50,Candida albicans [1],0.5 µg/mL
same,MIC50,Cryptococcus neoformans,1 µg/mL
COc1ccc2cc([C@H](C)C(=O)N[C@H](Cn3ccnc3)c3ccccc3)ccc2c1,MIC50,Aspergillus fumigatus,> 8 µg/mL
same,MIC50,Candida tropicalis,0.5 µg/mL
same,MIC50,Pichia kudriavzevii,0.5 µg/mL
same,MIC50,Candida albicans [1],1 µg/mL
same,MIC50,Cryptococcus neoformans,1 µg/mL
C[C@H](C(=O)OC(Cn1ccnc1)c1ccc(F)cc1)c1cccc(C(=O)c2ccccc2)c1 (stereo not given in full),MIC50,Aspergillus fumigatus,4 µg/mL
same,MIC50,Candida tropicalis,2 µg/mL
same,MIC50,Pichia kudriavzevii,0.5 µg/mL
same,MIC50,Candida albicans [1],0.5 µg/mL
same,MIC50,Cryptococcus neoformans,0.5 µg/mL
C[C@H](C(=O)OC(Cn1cnnn1)c1ccc(Cl)cc1)c1cccc(C(=O)c2ccccc2)c1 (stereo not given in full),MIC50,Aspergillus fumigatus,> 8 µg/mL
same,MIC50,Candida tropicalis,2 µg/mL
same,MIC50,Pichia kudriavzevii,1 µg/mL
same,MIC50,Candida albicans [1],0.5 µg/mL
same,MIC50,Cryptococcus neoformans,0.5 µg/mL
C[C@H](C(=O)OC(Cn1cnnn1)c1ccc(F)cc1)c1ccc(CC2CCCC2=O)cc1 (stereo not given in full),MIC50,Aspergillus fumigatus,> 8 µg/mL
same,MIC50,Candida tropicalis,2 µg/mL
same,MIC50,Pichia kudriavzevii,0.5 µg/mL
same,MIC50,Candida albicans [1],1 µg/mL
same,MIC50,Cryptococcus neoformans,2 µg/mL
C[C@H](C(=O)OC(Cn1ccnc1)c1ccc(F)cc1)c1ccc(CC2CCCC2=O)cc1 (stereo not given in full),MIC50,Aspergillus fumigatus,> 8 µg/mL
same,MIC50,Candida tropicalis,2 µg/mL
same,MIC50,Pichia kudriavzevii,1 µg/mL
same,MIC50,Candida albicans [1],2 µg/mL
same,MIC50,Cryptococcus neoformans,2 µg/mL
C[C@H](C(=O)OC(Cn1cnnn1)c1ccc(F)cc1)c1cccc(C(=O)c2ccccc2)c1 (stereo not given in full),MIC50,Aspergillus fumigatus,> 8 µg/mL
same,MIC50,Candida tropicalis,1 µg/mL
same,MIC50,Pichia kudriavzevii,0.5 µg/mL
same,MIC50,Candida albicans [1],0.5 µg/mL
same,MIC50,Cryptococcus neoformans,0.5 µg/mL
COc1ccc2cc([C@H](C)C(=O)N(C)CC(O)(Cn3ccnc3)c3ccc(Cl)cc3)ccc2c1 (stereo not given in full),MIC50,Aspergillus fumigatus,> 8 µg/mL
same,MIC50,Candida tropicalis,1 µg/mL
same,MIC50,Pichia kudriavzevii,1 µg/mL
same,MIC50,Candida albicans [1],0.5 µg/mL
same,MIC50,Cryptococcus neoformans,2 µg/mL
C[C@H](C(=O)N[C@H](Cn1ccnc1)c1ccccc1)c1ccc(CC2CCCC2=O)cc1 (stereo not given in full),MIC50,Aspergillus fumigatus,4 µg/mL
same,MIC50,Candida tropicalis,0.5 µg/mL
same,MIC50,Pichia kudriavzevii,0.5 µg/mL
same,MIC50,Candida albicans [1],2 µg/mL
same,MIC50,Cryptococcus neoformans,1 µg/mL
COc1ccc2cc([C@H](C)C(=O)OC(Cn3cnnn3)c3ccc(F)cc3)ccc2c1 (stereo not given in full),MIC50,Aspergillus fumigatus,> 8 µg/mL
same,MIC50,Candida tropicalis,2 µg/mL
same,MIC50,Pichia kudriavzevii,0.5 µg/mL
same,MIC50,Candida albicans [1],1 µg/mL
same,MIC50,Cryptococcus neoformans,1 µg/mL
C[C@H](C(=O)N(C)CC(O)(Cn1ccnc1)c1ccc(F)cc1)c1ccc(-c2ccccc2)c(F)c1 (stereo not given in full),MIC50,Aspergillus fumigatus,4 µg/mL
same,MIC50,Candida tropicalis,0.25 µg/mL
same,MIC50,Pichia kudriavzevii,0.25 µg/mL
same,MIC50,Candida albicans [1],0.25 µg/mL
same,MIC50,Cryptococcus neoformans,0.5 µg/mL
C[C@H](C(=O)N(C)CC(O)(Cn1ccnc1)c1ccc(Cl)cc1Cl)c1ccc(-c2ccccc2)c(F)c1 (stereo not given in full),MIC50,Aspergillus fumigatus,4 µg/mL
same,MIC50,Candida tropicalis,0.25 µg/mL
same,MIC50,Pichia kudriavzevii,0.5 µg/mL
same,MIC50,Candida albicans [1],0.25 µg/mL
same,MIC50,Cryptococcus neoformans,0.5 µg/mL
COc1ccc2cc([C@H](C)C(=O)N[C@H](Cn3cncn3)c3ccccc3)ccc2c1,MIC50,Aspergillus fumigatus,4 µg/mL
same,MIC50,Candida tropicalis,0.25 µg/mL
same,MIC50,Pichia kudriavzevii,0.25 µg/mL
same,MIC50,Candida albicans [1],0.25 µg/mL
same,MIC50,Cryptococcus neoformans,1 µg/mL
